In one data set the test system is OCI-LY10 tumor. As to the kind of experiment: Anti-tumor effect in mouse OCI-LY10 tumor model. Conditions: SCID mice, OCI-LY10 subcutaneous, oral 100 mg/kg, twice a day, 14 days; rate=[1−(Day14−Day0)/Day0]*100%. The format is in vivo. As for the experimental part: OCI-LY10 cells were cultured in RPMI-1640 medium containing 10% fetal bovine serum (FBS). Cells were cultured at 37° C. in a 5% CO2 incubator.
Cell inoculation method to establish tumor SCID mouse subcutaneous transplantation model: tumor cells in logarithmic growth phase were collected, counted and resuspended in RPMI-1640 medium. Matrigel was added at 1:1, and the concentration of cell suspension was adjusted to 4×10^7 cells/ml. Inoculate tumor cells subcutaneously on the right back of SCID mice with a 1 ml syringe, 4×10^6 cells/0.1 ml/mouse
When the average volume of animal tumors is about 140 mm^3, animals with too large tumor, too small tumor, or have irregular tumor shapes were eliminated. The tumor-bearing mice with tumor volumes ranging from 101.34 to 209.86 mm 3 were selected, and were divided into groups by random block method, respectively as model group, compound group (oral 100 mg/kg, twice a day), 7 mice in each group. The day of grouping was Day 0, and administration was started according to the body weight of the animals.
After 14 days of administration, the tumor volume was measured, and the tumor inhibition rate was calculated, and the calculation formula was as follows: Tumor inhibition rate=[1−(Day14 tumor volume−Day0 administration tumor volume)/Day0 administration tumor volume]*100%

Another data set deals with T1, BTK protein (Homo sapiens, UniProt Q06187).
T1 construct: endogenous in cells; host or cells: Jeko-1
The experiment in a line: Western blot assay for degradation of BTK protein in Jeko-1 cells. The format is cell-based. Conditions: 24 hours of drug treatment, GAPDH internal reference. As for the experimental part:
The Jeko-1 cell line was cultured in RPMI-1640 medium containing 20% fetal bovine serum in an incubator at 37° C., 5% CO2, and saturated humidity. After the cells grew to the logarithmic growth phase, 5×10^6 cells per well were seeded in a 6-well culture plate, and a DMSO control group and a compound test group were set.
(§1) After 24 hours of drug treatment, the cells were collected, added pre-cooled cell lysate, and lysed on ice for 45 min. After the cells were completely lysed, they were centrifuged, and the supernatant was taken and stored in an ice bath. The protein concentration was determined by Bradford protein concentration assay kit (detergent compatible type), and protein samples were prepared. After the proteins were separated by SDS-PAGE gel electrophoresis, they were transferred to PVDF membranes by wet method and blocked with 5% BSA solution at room temperature for 1 h. Diluted rabbit anti-human BTK and GAPDH were added according to the experimental requirements, and incubated overnight at 4° C. After washing the membrane with TBST, horseradish peroxidase-labeled goat anti-rabbit IgG secondary antibody dilution was added and incubated at room temperature for 1 h. After washing the membrane with TBST, the ECL luminescent solution was added in the gel imager for development and imaging. […]
(In western blotting, separated proteins are transferred to a membrane and probed.)

Another data set addresses T2, BTK-C481S mutant protein (Homo sapiens, UniProt Q06187, C481S).
T2 construct: The TMD8 (BTK-C481S) mutant cell line was cultured in RPMI-1640 medium; endogenous in cells; host or cells: TMD8 (BTK-C481S) mutant cell line
The experiment in a line: Western blot assay for degradation of BTK-C481S mutant protein in TMD8 (BTK-C481S) cells. Conditions: 24 hours of drug treatment, GAPDH internal reference. In kind it is cell-based. How it is done:
The TMD8 (BTK-C481S) mutant cell line was cultured in RPMI-1640 medium containing 20% fetal bovine serum in an incubator at 37° C., 5% CO2, and saturated humidity. After the cells grew to the logarithmic growth phase, 5×10^6 cells per well were seeded in a 6-well culture plate, and a DMSO control group and a compound test group were set.
as §1

Data set [1] concerns TMD8 (BTK-C481S) mutant cells. As to the kind of experiment: Proliferation inhibition of TMD8 (BTK-C481S) mutant cells (CCK-8). The format is cell-based. As to conditions: Homo sapiens. How it is done:
Cell plating: TMD8 (BTK-C481S) mutant cells in the logarithmic growth phase were taken, centrifuged, and an appropriate amount of complete medium was added to obtain a single-cell suspension. Cell counting was carried out with a hemocytometer, and a cell suspension of 1.5×10^5 cells/mL was prepared. 100 μL of cell suspension per well was inoculated in a 96-well culture plate, and cultured in a CO2 cell incubator for 24 hours.
The plates were shaken well, placed in a CO2 cell incubator, and continued to incubate for 72h.
CCK-8 detection: 72 hours after administration, 10% CCK-8 solution was added to each well. The plates were placed in a CO2 cell incubator, and incubated for 1-4 hours. The absorbance of each well was measured at 450 nm using a microplate reader.

Data set [2] in a line: Caco-2 membrane permeability and efflux test. The format is in vitro ADME. Conditions: human; for Papp A→B at 90 min: Caco-2, A-B; for Papp A→B at 90 min / Papp B→A at 90 min: Caco-2 monolayer, 37° C.; for Papp B→A at 90 min: Caco-2, B-A; for efflux ratio at 90 min: Caco-2, read-out: Papp(B-A)/Papp(A-B). As for the experimental part:
• 1) Caco-2 cells in the logarithmic growth phase were taken, digested and centrifuged and the cell concentration was adjusted to 4×10^5 cells/mL with MEM complete medium. • 2) 0.5 mL of cell suspension was added to the apical side (AP side) and 1.5 mL MEM cell complete medium was added to the basal side (BL side) of the Transwell plate, respectively. • 3) Culture in a cell constant temperature incubator, change the culture medium every two days, and change the medium every day after one week of culture. • 4) After about 21 days, the resistance value of the formed continuous monolayer film is greater than 100 Ω·cm^2, and the transport experiment is carried out within 3-5 days. • 5) The test compound solution was added to the AP side as the donor solution (Donor), and 1.5 mL of the receiver solution (Receiver) was added to the basal side (BL side). After the culture plate was placed in an incubator at 37° C. for 90 minutes, the AP side was separated from the BL side to terminate the reaction. • 6) Donor or Receiver samples were diluted with 0.4% DMSO in HBSS, and then mixed with acetonitrile. The LC conditions were as follows: mobile phase A: H2O—0.025% FA-1 mM NH4OAC, B: MeOH-0.025% FA-1 mM NH4OAC. Column: ACQUITY UPLC BEH_C18 ([…], 1.7 μm). Flow rate 0.60 mL/min. Gradient: 0.2 min 2% B, 0.6 min 98% B, 1.3 min 98% B, 1.31 min 2% B, 1.8 min stop. • 7) Calculation formula: Papp=(VA/(area×time))×([drug]receiver/([drug]donor)×dilution factor)
where VA is the volume in the receiving chamber, area is the surface area of the membrane, and time is the total transport time in seconds.
Drug molecules cross the single cell layer or via the cell gap from the apical side (AP side) to the basolateral side (BL side) of the Caco-2 monolayer are A to B, and vice versa are B to A. The efflux ratio: Papp(B−A)/Papp(A−B).
Background: Passage across Caco-2 layers is used to estimate intestinal permeability.

The mark [3] stands for this setting: TMD8 (BTK-C481S) mutant cells, 72h, CCK-8, read-out: IC50.
Where [4] appears, read: Sample-01, read-out: Papp Sample-01.
[5] abbreviates: Sample-02, read-out: Papp Sample-02.
[6] abbreviates: mean of two samples, read-out: Papp Mean.

By DC50 is commonly meant the concentration giving 50% degradation. Low values mean degradation at low concentration, high ones degradation only at high concentration. For orientation: IC50 means the concentration needed to halve the response being measured.

Where two headings read alike, the source gives them in different places.

T2 sequence (Q06187 whole entry C481S): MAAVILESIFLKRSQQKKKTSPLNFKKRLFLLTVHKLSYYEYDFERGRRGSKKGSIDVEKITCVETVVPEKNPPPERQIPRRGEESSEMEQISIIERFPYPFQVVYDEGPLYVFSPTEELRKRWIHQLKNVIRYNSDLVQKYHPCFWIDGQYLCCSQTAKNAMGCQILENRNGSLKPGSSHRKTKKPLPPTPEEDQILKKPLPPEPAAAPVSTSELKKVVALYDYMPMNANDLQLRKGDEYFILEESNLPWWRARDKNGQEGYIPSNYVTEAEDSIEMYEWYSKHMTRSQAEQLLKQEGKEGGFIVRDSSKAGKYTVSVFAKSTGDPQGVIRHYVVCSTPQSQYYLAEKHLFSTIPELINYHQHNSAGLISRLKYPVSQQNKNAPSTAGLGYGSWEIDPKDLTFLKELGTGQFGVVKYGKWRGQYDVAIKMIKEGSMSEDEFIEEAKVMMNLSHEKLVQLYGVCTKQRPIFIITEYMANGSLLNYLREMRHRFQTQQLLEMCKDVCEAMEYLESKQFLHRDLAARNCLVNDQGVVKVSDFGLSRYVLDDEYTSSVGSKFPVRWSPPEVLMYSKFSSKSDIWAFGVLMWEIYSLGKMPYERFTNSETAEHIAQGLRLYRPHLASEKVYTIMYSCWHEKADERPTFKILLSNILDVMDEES
T1 sequence (Q06187 whole entry): as the sequence (Q06187 whole entry C481S) above, with S481C counted along it

Regarding `Nc1ncnc2c1c(-c1ccc(Oc3ccccc3)cc1)nn2C1CCN(CCCCCOCCOc2ccc3c(c2)CN(C2CCC(=O)NC2=O)C3=O)CC1` (centres unmarked) [Compound 1], the Tumor inhibition rate in the data set with OCI-LY10 tumor came out at 175%. Also, the half-maximal degradation concentration (DC50) amounted to 2.3 nM at BTK protein and 9.9 nM at BTK-C481S mutant protein. Further, the IC50 in data set [1] (setting [3]) came out at 7.1 nM. For the same compound, the Papp A→B at 90 min worked out at 5.55 ×10⁻⁶ cm/s in data set [2] (setting [4]), 5.16 ×10⁻⁶ cm/s in data set [2] (setting [5]) and 5.35 ×10⁻⁶ cm/s in data set [2] (setting [6]). For the same compound, the Papp B→A at 90 min was determined as 7.18 ×10⁻⁶ cm/s in data set [2] (setting [4]), 6.99 ×10⁻⁶ cm/s in data set [2] (setting [5]) and 7.09 ×10⁻⁶ cm/s in data set [2] (setting [6]). Besides, the efflux ratio at 90 min in data set [2] worked out at 1.32.

Take `Nc1ncnc2c1c(-c1ccc(Oc3ccccc3)cc1)nn2C1CCN(CCOCCCCCOc2ccc3c(c2)CN(C2CCC(=O)NC2=O)C3=O)CC1` (centres unmarked) [Compound 2]: the Tumor inhibition rate in the data set on OCI-LY10 tumor worked out at 189%. The DC50 on BTK protein is 1.5 nM; at BTK-C481S mutant protein, 3.1 nM. Also, the IC50 in data set [1] (setting [3]) was 17.7 nM. In addition, the Papp A→B at 90 min in data set [2] (setting [4]) was found to be 2.37 ×10⁻⁶ cm/s; in data set [2] (setting [5]), 2.26 ×10⁻⁶ cm/s; in data set [2] (setting [6]) it was 2.32 ×10⁻⁶ cm/s. Further, the Papp B→A at 90 min is 2.73 ×10⁻⁶ cm/s in data set [2] (setting [4]), 2.75 ×10⁻⁶ cm/s in data set [2] (setting [5]) and 2.74 ×10⁻⁶ cm/s in data set [2] (setting [6]). Further, the efflux ratio at 90 min in data set [2] came to 1.18.

Turning to `Nc1ncnc2c1c(-c1ccc(Oc3ccccc3)cc1)nn2C1CCN(CCOCCOCCNc2ccc3c(c2)CN(C2CCC(=O)NC2=O)C3=O)CC1` (centres unmarked) [Control compound 1], the values for the Papp A→B at 90 min in data set [2] (setting [4]), in data set [2] (setting [5]) and in data set [2] (setting [6]) were 1.07 ×10⁻⁶ cm/s, 1.04 ×10⁻⁶ cm/s and 1.05 ×10⁻⁶ cm/s, respectively. In addition, the Papp B→A at 90 min in data set [2] (setting [4]) stood at 30.2 ×10⁻⁶ cm/s; in data set [2] (setting [5]) it was 39.4 ×10⁻⁶ cm/s; in data set [2] (setting [6]), 34.8 ×10⁻⁶ cm/s. For the same compound, the efflux ratio at 90 min in data set [2] is 33.

Take `Nc1ncnc2c1c(-c1ccc(Oc3ccccc3)cc1)nn2C1CCCN(CCOCCOCCOCCOCCNc2cccc3c2C(=O)N(C2CCC(=O)NC2=O)C3=O)C1` (centres unmarked) [Control compound 2]: the figures for the Papp A→B at 90 min in data set [2] (setting [4]), in data set [2] (setting [5]) and in data set [2] (setting [6]) were 1.02 ×10⁻⁶ cm/s, 1 ×10⁻⁶ cm/s and 1.01 ×10⁻⁶ cm/s, respectively. For the same compound, the Papp B→A at 90 min was determined as 18.1 ×10⁻⁶ cm/s in data set [2] (setting [4]), 18.6 ×10⁻⁶ cm/s in data set [2] (setting [5]) and 18.4 ×10⁻⁶ cm/s in data set [2] (setting [6]). Also, in data set [2], the efflux ratio at 90 min was 18.1.

Take `Nc1ncnc2c1c(-c1ccc(Oc3ccccc3)cc1)nn2C1CCN(CCOCCOCCNc2ccc3c(c2)C(=O)N(C2CCC(=O)NC2=O)C3=O)CC1` (centres unmarked) [Control compound 3]: the values for the Papp A→B at 90 min in data set [2] (setting [4]), in data set [2] (setting [5]) and in data set [2] (setting [6]) were 2.14 ×10⁻⁶ cm/s, 2.16 ×10⁻⁶ cm/s and 2.15 ×10⁻⁶ cm/s, respectively. Further, the Papp B→A at 90 min worked out at 33.5 ×10⁻⁶ cm/s in data set [2] (setting [4]), 34.8 ×10⁻⁶ cm/s in data set [2] (setting [5]) and 34.1 ×10⁻⁶ cm/s in data set [2] (setting [6]). Also, the efflux ratio at 90 min in data set [2] amounted to 15.9.

The compound `C=CC(=O)N1CCC[C@@H](n2nc(-c3ccc(Oc4ccccc4)cc3)c3c(N)ncnc32)C1` [Ibrutinib] yielded an IC50 in data set [1] (TMD8, 72 h) of 125 nM.

(Values after patent US12624042B2, “Compound for targeted degradation of BTK and anti-tumour use thereof” (SHANGHAI MEIZER PHARMACEUTICALS CO., LTD., priority 2020, dated 2026).)
